IC50 data for three compounds are collected here from US20140179664A1, “Heterocyclyl Pyrimidine Analogues As JAK Inhibitors” (Cellzome Limited, priority 2011, published 2014).

The test system of this test is STAT5 phosphorylation downstream of JAK3 in human YT cells. Description: pSTAT5 cell assay (IL-2 stimulated YT cells, AlphaScreen). It counts as cell-based. To be noted: IL-2 stimulation, read-out: Inhibition values (IC50) pSTAT5. From the text: STAT5 phosphorylation represents one of the proximal events in the signalling cascade downstream of JAK3 activation. Therefore STAT5 phosphorylation is an appropriate readout to assess the mechanistic effect of JAK3 inhibition. Stimulation of human YT cells, an NK-like cell line, with interleukin-2 (IL-2) results in phosphorylation of STAT5 at tyrosine residue 694 (Tyr694) that can be quantitatively measured by immunodetection with specific antibodies and an appropriate detection method, in this case AlphaScreen assay technology.
Human YT cells were grown in RPMI medium (Lonza, BE12-167) with 2 mM L-Glutamine (Invitrogen, 25030-024) and 10% heat-inactivated FBS (Invitrogen, 10106-169) and kept in a humidified incubator (37° C., 5% CO2). Cells were harvested by centrifugation, washed once with HBSS (Invitrogen, 14180-046), resuspended in HBSS at 1.5×10^6 cells/ml and 0.9×10^4 cells were seeded in 6 μl per well in a 96 well White plate (PerkinElmer, 6005569).
Test compounds were dissolved in DMSO and a 1:3 dilution series (9 steps) was prepared. To generate a dose response curve, 3 μl of fourfold concentrated compound in 4% DMSO/HBSS were added to each cell sample in the 96 well plate resulting in a final DMSO concentration of 1% DMSO. Cells were incubated for one hour in a humidified incubator (37° C., 5% CO2). To each well 3 μl of a fourfold concentrated IL-2 solution (Recombinant human IL-2, Peprotech 200-02; 120 nM solution in HBSS) was added and incubated for 30 minutes at room temperature. Cells were lysed by adding 3 μl of 5× lysis buffer (SureFire lysis buffer; Perkin Elmer, TGRS5S10K) and incubated for 10 minutes at room temperature with gentle shaking
For signal detection by AlphaScreen® technology the SureFire phospho-STAT5 (Tyr694/Tyr699) kit was used according to instructions provided by the manufacturer (Perkin Elmer, TGRS5S10K). Acceptor beads were added as recommended by the manufacturer (Reactivation buffer/Activation buffer/Acceptor beads at a ratio of 40:10:1) and incubated at room temperature for 1.5 hours with gentle shaking Then donor beads were added as recommended (Dilution buffer/Donor beads at a ratio of 20:1) and incubated at room temperature for 1.5 hours with gentle shaking Plates were read on an Envision instrument (Perkin Elmer) with the AlphaScreen protocol. Data were analysed in BioAssay using the nonlinear regression for a sigmoidal dose-response with a variable slope.
A general note: In Alpha technology, singlet oxygen from a donor bead excites a nearby acceptor bead.

Consider `Cn1cc(Nc2ncc(Cl)c(N[C@H](CO)c3ccccc3)n2)cn1` [Compound 4], for which the concentration for half-maximal inhibition (IC50) (in general, the concentration that inhibits the measured activity by half) is 0.25 to 1 µM.
For the compound `OCCn1cc(Nc2ncc(Cl)c(N[C@H](CO)c3ccccc3)n2)cn1` [Compound 9], the IC50 is 0.25 to 1 µM.
`OC[C@@H](Nc1nc(Nc2cnn(CC(F)F)c2)ncc1Cl)c1ccccc1F` [Compound 165]: the IC50 is under 0.25 µM.
